Results from PubChem BioAssay AID2060627 (Molecular Pharmacology Branch, DTP, NCI, 2025).
pIC50: −log10 of the molar value. “And” between values parts separate entries of the source, which are not always exact repeats. Equal values may be shown once.

Test system: 156681-154-R-J1-PDC complex spheroid viability
Assay: Anticancer human tumor 156681-154-R-J1-PDC patient-derived melanoma cell line growth inhibition [CLK]
Details: for viability, T/C: stronger effect = lower value
Summary of the method: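 Patient-derived tumor cells grown as complex spheroids with HUVEC endothelial cells and mesenchymal stem cells, treated with drug combinations. Concentrations descend in half-log steps from near clinical Cmax, or from 10 microM if Cmax unknown.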

[1] = curve of first compound, second compound 0.0316 µM
[2] = curve of first compound, second compound 0.1 µM
[3] = curve of first compound, second compound 0.316 µM
[4] = curve of first compound, second compound 1 µM
[5] = curve of first compound, second compound 3.16 µM
[6] = curve of first compound, second compound 10 µM
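Note: spheroids exposed to the agents for seven days.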
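Throughout, for viability, T/C: 100% = DMSO vehicle control viability.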

Compound `C=CC(=O)Nc1cc(Nc2nccc(-c3cn(C)c4ccccc34)n2)c(OC)cc1N(C)CCN(C)C` + CNC(=O)c1ccc(Nc2nc(OC3CCCC3)c3c(-c4ccc5nc(C)oc5c4)c[nH]c3n2)c(OC)c1 has a pIC50 [1] of less than 6.52, a pIC50 [2] of less than 6.52 and a pIC50 [3] of less than 6.52. It also gave a pIC50 [4] of 6.62, a pIC50 [5] of 8.61 and a pIC50 [6] greater than 9.02. The viability, T/C (second compound 0.0316 µM, first compound 0.000949 µM) was 82.8%, the viability, T/C (second compound 0.0316 µM, first compound 0.003 µM) was 97.7% and the viability, T/C (second compound 0.0316 µM, first compound 0.00949 µM) was 90.6%. The viability, T/C (second compound 0.0316 µM, first compound 0.03 µM) was 111%, the viability, T/C (second compound 0.0316 µM, first compound 0.0949 µM) was 109% and the viability, T/C (second compound 0.0316 µM, first compound 0.3 µM) was 90%. It also gave a viability, T/C (second compound 0.1 µM, first compound 0.000949 µM) of 67.7%, a viability, T/C (second compound 0.1 µM, first compound 0.003 µM) of 64.1% and a viability, T/C (second compound 0.1 µM, first compound 0.00949 µM) of 61.8%. It also gave a viability, T/C (second compound 0.1 µM, first compound 0.03 µM) of 68.5%, a viability, T/C (second compound 0.1 µM, first compound 0.0949 µM) of 64.3% and a viability, T/C (second compound 0.1 µM, first compound 0.3 µM) of 64.8%. It also gave a viability, T/C (second compound 0.316 µM, first compound 0.000949 µM) of 71.5%, a viability, T/C (second compound 0.316 µM, first compound 0.003 µM) of 64.8% and a viability, T/C (second compound 0.316 µM, first compound 0.00949 µM) of 83.1%. For the same compound, the viability, T/C (second compound 0.316 µM, first compound 0.03 µM) was 62.7%, the viability, T/C (second compound 0.316 µM, first compound 0.0949 µM) was 63.2% and the viability, T/C (second compound 0.316 µM, first compound 0.3 µM) was 64%. The viability, T/C (second compound 1 µM, first compound 0.000949 µM) was 62.1%, the viability, T/C (second compound 1 µM, first compound 0.003 µM) was 56% and the viability, T/C (second compound 1 µM, first compound 0.00949 µM) was 53.5%. For the same compound, the viability, T/C (second compound 1 µM, first compound 0.03 µM) was 48.2%, the viability, T/C (second compound 1 µM, first compound 0.0949 µM) was 64.8% and the viability, T/C (second compound 1 µM, first compound 0.3 µM) was 43.6%. The viability, T/C (second compound 3.16 µM, first compound 0.000949 µM) was 50.1%, the viability, T/C (second compound 3.16 µM, first compound 0.003 µM) was 57.6% and the viability, T/C (second compound 3.16 µM, first compound 0.00949 µM) was 35.2%. It also gave a viability, T/C (second compound 3.16 µM, first compound 0.03 µM) of 47.2%, a viability, T/C (second compound 3.16 µM, first compound 0.0949 µM) of 37.9% and a viability, T/C (second compound 3.16 µM, first compound 0.3 µM) of 29.1%. It also gave a viability, T/C (second compound 10 µM, first compound 0.000949 µM) of 44.9%, a viability, T/C (second compound 10 µM, first compound 0.003 µM) of 41.8% and a viability, T/C (second compound 10 µM, first compound 0.00949 µM) of 31.9%. For the same compound, the viability, T/C (second compound 10 µM, first compound 0.03 µM) was 43.1%, the viability, T/C (second compound 10 µM, first compound 0.0949 µM) was 45% and the viability, T/C (second compound 10 µM, first compound 0.3 µM) was 24.2%.

For `COc1c(OCCCN2CCOCC2)ccc2c3n(c(=NC(=O)c4cnc(N)nc4)nc12)CCN3` + CN1CCN(c2cc(C(=O)Nc3cc4cc(-c5cnn(C)c5)ccc4cn3)ccn2)CC1, the pIC50 [1] was 7.80, the pIC50 [2] was 7.89 and the pIC50 [3] was greater than 8.50. It also gave a pIC50 [4] greater than 8.50, a pIC50 [5] greater than 8.50 and a pIC50 [6] greater than 8.50. The viability, T/C (second compound 0.0316 µM, first compound 0.00316 µM) was 76.1%, the viability, T/C (second compound 0.0316 µM, first compound 0.01 µM) was 58.8% and the viability, T/C (second compound 0.0316 µM, first compound 0.0316 µM) was 36.8%. The viability, T/C (second compound 0.0316 µM, first compound 0.1 µM) was 12.7%, the viability, T/C (second compound 0.0316 µM, first compound 0.316 µM) was 2.94% and the viability, T/C (second compound 0.0316 µM, first compound 1 µM) was 0.44%. The viability, T/C (second compound 0.1 µM, first compound 0.00316 µM) was 76.2%, the viability, T/C (second compound 0.1 µM, first compound 0.01 µM) was 55.5% and the viability, T/C (second compound 0.1 µM, first compound 0.0316 µM) was 29.6%. For the same compound, the viability, T/C (second compound 0.1 µM, first compound 0.1 µM) was 10.3%, the viability, T/C (second compound 0.1 µM, first compound 0.316 µM) was 1.15% and the viability, T/C (second compound 0.1 µM, first compound 1 µM) was 0.6%. The viability, T/C (second compound 0.316 µM, first compound 0.00316 µM) was 18.1%, the viability, T/C (second compound 0.316 µM, first compound 0.01 µM) was 15% and the viability, T/C (second compound 0.316 µM, first compound 0.0316 µM) was 6.26%. It also gave a viability, T/C (second compound 0.316 µM, first compound 0.1 µM) of 2.42%, a viability, T/C (second compound 0.316 µM, first compound 0.316 µM) of 1.79% and a viability, T/C (second compound 0.316 µM, first compound 1 µM) of 0.42%. It also gave a viability, T/C (second compound 1 µM, first compound 0.00316 µM) of 0.13%, a viability, T/C (second compound 1 µM, first compound 0.01 µM) of 0.95% and a viability, T/C (second compound 1 µM, first compound 0.0316 µM) of 0.12%. For the same compound, the viability, T/C (second compound 1 µM, first compound 0.1 µM) was 0.27%, the viability, T/C (second compound 1 µM, first compound 0.316 µM) was 0.51% and the viability, T/C (second compound 1 µM, first compound 1 µM) was 0.4%. For the same compound, the viability, T/C (second compound 3.16 µM, first compound 0.00316 µM) was 0.05%, the viability, T/C (second compound 3.16 µM, first compound 0.01 µM) was 0.16% and the viability, T/C (second compound 3.16 µM, first compound 0.0316 µM) was 0.12%. The viability, T/C (second compound 3.16 µM, first compound 0.1 µM) was 1.29%, the viability, T/C (second compound 3.16 µM, first compound 0.316 µM) was 1.19% and the viability, T/C (second compound 3.16 µM, first compound 1 µM) was 2.81%. For the same compound, the viability, T/C (second compound 10 µM, first compound 0.00316 µM) was 0.04%, the viability, T/C (second compound 10 µM, first compound 0.01 µM) was 1.39% and the viability, T/C (second compound 10 µM, first compound 0.0316 µM) was 2.94%. For the same compound, the viability, T/C (second compound 10 µM, first compound 0.1 µM) was 0.1%, the viability, T/C (second compound 10 µM, first compound 0.316 µM) was 0.81% and the viability, T/C (second compound 10 µM, first compound 1 µM) was 0.71%.

`CC1COCCN1c1cc(C2(S(C)(=N)=O)CC2)nc(-c2ccnc3[nH]ccc23)n1` (stereo unspecified) was tested, and the viability, T/C (compound 0.0316 µM) was 78.6% and 84.9%, the viability, T/C (compound 0.1 µM) was 88.3% and 97.8% and the viability, T/C (compound 0.316 µM) was 85.9% and 86.3%. For the same compound, the viability, T/C (compound 1 µM) was 61.9% and 48%, the viability, T/C (compound 3.16 µM) was 24% and 20.1% and the viability, T/C (compound 10 µM) was 15.4% and 13.1%. The pIC50 (curve of compound) was 5.84 and 6.02.
